{"source": "paper PMC3343204", "about": "(Clinical Cancer Research, 2012)", "key": {"MPNST cells": {"system": "MPNST cells", "experiment": "Colony formation assay", "format": "cell-based, human", "conditions": "for IC50: Homo sapiens, 24 h"}, "[1]": {"experiment": "Flavopiridol plasma pharmacokinetics in phase I trial", "format": "in vivo, human"}, "[2]": {"system": "dedifferentiated liposarcoma cell lines, with amplified CDK4", "experiment": "Sensitivity of liposarcoma cell lines", "format": "cell-based, human", "conditions": "prior observations, data not shown"}, "[3]": {"conditions": "human plasma; cited from earlier work"}, "CDK2": {"system": "CDK2", "conditions": "cited from earlier work"}, "CDK4": {"system": "CDK4", "conditions": "cited from earlier work"}, "CDK6": {"system": "CDK6", "conditions": "cited from earlier work"}, "CDK9": {"system": "CDK9", "conditions": "cited from earlier work"}, "[4]": {"conditions": "patients, cited from earlier work"}}, "data": [{"smiles": "COc1cccc2c1C(=O)c1c(O)c3c(c(O)c1C2=O)C[C@@](O)(C(=O)CO)C[C@@H]3O[C@H]1C[C@H](N)[C@H](O)[C@H](C)O1", "note": "[doxorubicin]", "values": [{"measurement": "IC50", "setting": "MPNST cells", "result": 0.015, "unit": "µM"}]}, {"smiles": "CN1CC[C@H](c2c(O)cc(O)c3c(=O)cc(-c4ccccc4Cl)oc23)[C@H](O)C1", "note": "[flavopiridol]", "values": [{"measurement": "IC50", "setting": "MPNST cells", "result": 0.15, "unit": "µM"}, {"measurement": "colony formation (percentage of untreated controls)", "setting": "MPNST cells; MPNST cells, flavopiridol alone 150 nM 24 hours, colonies after 10 days", "result": 59, "unit": "%"}, {"measurement": "time point at which Cmax was observed", "setting": "[1]; first time point analyzed in each schedule", "result": 0.5, "unit": "h"}, {"measurement": "Cmax", "setting": "[1]; human, plasma, intravenous, Mean Cmax, cycle 1, cohort 8 (doxorubicin 60, flavopiridol 90 (50/40) mg/m^2), n 4", "result": 3.33, "unit": "µM"}, {"measurement": "sensitivity to flavopiridol", "setting": "[2]", "result": "highly sensitive"}, {"measurement": "protein binding in plasma", "setting": "[3]", "result": 90, "unit": "%"}, {"measurement": "inhibition of CDK2", "setting": "CDK2", "result": "nanomolar concentrations"}, {"measurement": "inhibition of CDK4", "setting": "CDK4", "result": "nanomolar concentrations"}, {"measurement": "inhibition of CDK6", "setting": "CDK6", "result": "nanomolar concentrations"}, {"measurement": "inhibition of CDK9", "setting": "CDK9", "result": "nanomolar concentrations"}, {"measurement": "MTD, single agent bolus schedule", "setting": "[4]; approximate", "result": "~70", "unit": "mg/m^2"}, {"measurement": "MTD, single agent divided dose flavopiridol therapy", "setting": "[4]; bolus followed by infusion", "result": 90, "unit": "mg/m^2"}]}]}
